Reference: patent USRE38551E1, “Anticonvulsant enantiomeric amino acid derivatives” (priority 1996, dated 2004)
pIC50: −log10 of the molar value. Where two headings read alike, the source gives them in different places. Marks after values point to notes of the source that are not given here.

How the values were obtained:
[1] = test system: Crl:CD BR Charles River rats
Description: II. Five groups of Crl:CD® BR Charles River rats were each exposed to BAMP or a control substance (0.5% methylcellulose [400 Cps] aqueous solution in distilled water) according to the following dosage schedule:
Group 1—vehicle control (10 males, 10 females), 0 mg/kg/day
Group 2—low (10 males, 10 females), 10 mg/kg/day
Group 3—mid low (10 males, 10 females), 30 mg/kg/day
Group 4—mid high (10 males, 10 females), 100 mg/kg/day
Group 5—high (10 males, 10 females), 300 mg/kg/day
Exposure was by oral gavage, once daily, for a period of at least 30 consecutive days, after which all animals were sacrificed for pathologic evaluation.
All animals were weighed once prior to initiation of dosing and weekly thereafter. Food-fasted (overnight) blood samples for clinical chemistry and hematology were collected at termination. Blood samples were collected from the orbital venous plexus using carbon dioxide (mixed with oxygen) as an anesthetic.
All animals were sacrificed, at the appropriate time, by exsanguination, under barbiturate anesthesia, and all were subjected to a necropsy examination.
Clinical observations were reviewed at necropsy, and all grossly observed abnormalities were entered directly into the computerized data collection system. Adrenals, brain with brainstem, heart, kidneys, liver, ovaries, pituitary, testes with epididymides, and thyroid with parathyroids were weighted from each animal. The pituitary and thyroid with parathyroids were weighed after fixation and all of the other organs were weighed at the time of necropsy.
As required by the protocol, histologic evaluations were conducted on liver only from all animals of Groups 1 (control) and 5 (high). All histologic findings were entered directly into the computerized data capture system. Lesions were graded as to relative severity or degree of involvement (1=minimal, 2=slight, 3=moderate, 4=moderately severe, 5=severe). In general, minimal represents the least consistently recognizable degree of any given histoniorphologic alteration, while severe would represent the most extreme degree reasonably possible, with the other three grades occupying a continuum between the two extremes. The grades are subjective, comparative evaluations, based on morphology alone and are not intended by themselves to imply any degree of functional impairment.

[2] = test system: liver; settings: rats, p.o., short term
[3] = molecular target: p-nitroanisole O-demethylase; test: in vitro p-nitroanisole O-demethylase inhibition; type: biochemical; settings: listed as Compound A, read-out: I50, in vitro p-nitroanisole O-demethylase activity
Text: This interpretation is supported by the similar effectiveness of Compound A by the MES test, the increased hexobarbital sleep time, and the unaltered liver microsomal enzyme activity. In view of the increased hexobarbital sleep time in the 5-day treated animals, it was thought important to determine the in vitro effect of Compound A on p-nitroanisole O-demethylase activity. […] This may indicate that the potentiation of hexobarbital sleep time is central and not peripheral.

[4] = test system: liver microsomal system; test: 7-day liver microsomal studies; type: in vivo, rats; settings: rat, in vivo, 48 mg/kg
Description: Two of the three groups of animals subjected to the hexobarbital sleep time test (chronically treated and vehicle control groups) were continued on their respective original treatment regimen for two days (days 6 and 7) and 24 hours later (day 8) subjected to liver microsomal studies. The rats were decapitated and the livers perfused with 0.9% sodium chloride solution. The livers were removed, weighed, and homogenized in 0.25M sucrose. Microsomes were prepared and their drug metabolizing capabilities (microsomal protein yield; cytochrome P-450 concentration; p-nitroanisole O-demethylase and NADPH cytochrome c reductase activities; norbenzphetamine MI complex formation; and glucuronyl transferase, erythromycin demethylase, and ethylmorphine demethylase activities) measured (Arch. Biochem. Biophys. 143: 318-329, 1971).

[5] = female, group 2, 10 mg/kg/day, 30 days oral
[6] = female, group 3, 30 mg/kg/day, 30 days oral
[7] = female, group 4, 100 mg/kg/day × 30 days oral
[8] = female, group 4, 100 mg/kg/day, 30 days oral
[9] = female, group 5, 300 mg/kg/day × 30 days oral
[10] = female, group 5, 300 mg/kg/day, 30 days oral
[11] = male, group 2, 10 mg/kg/day, 30 days oral
[12] = male, group 3, 30 mg/kg/day, 30 days oral
[13] = male, group 4, 100 mg/kg/day × 30 days oral
[14] = male, group 4, 100 mg/kg/day, 30 days oral
[15] = male, group 5, 300 mg/kg/day × 30 days oral
[16] = male, group 5, 300 mg/kg/day, 30 days oral

COC[C@@H](NC(C)=O)C(=O)NCc1ccccc1 [Ex. 1, 2, (R)-N-Benzyl-2-Acetamide-3-methoxypropionamide]
9: LIVER (LI) NOT REMARKABLE (number of animals) [1, 16]
207.0 g: TERMINAL BODY WT, mean [1, 6]
349.9 g: TERMINAL BODY WT, mean [1, 12]
no evidence of causing liver necrosis: liver necrosis ([2]; 3.9 or 100 mg/kg daily)
3.608%: LIVER ORGAN-TO-BODY WT, mean [1, 7]
218.3 g: TERMINAL BODY WT, mean [1, 7]
205.9 g: TERMINAL BODY WT, mean [1, 9]
3.237%: LIVER ORGAN-TO-BODY WT, mean [1, 5]
1: LIVER (LI) ENLARGED (number of animals affected) [1, 16]
342.0 g: TERMINAL BODY WT, mean [1, 11]
4.016* %: LIVER ORGAN-TO-BODY WT, mean [1, 15]
10: ESOPHAGUS (ES) NOT REMARKABLE (number of animals) [1, 5] | HEART (HT) NOT REMARKABLE (number of animals) [1, 5] | LIVER (LI) NOT REMARKABLE (number of animals) [1, 5] | LUNG (LU) NOT REMARKABLE (number of animals) [1, 5] | PARATHYROID (PT) NOT REMARKABLE (number of animals) [1, 5] | SPLEEN (SP) NOT REMARKABLE (number of animals) [1, 5] | TRACHEA (TR) NOT REMARKABLE (number of animals) [1, 5] | ESOPHAGUS (ES) NOT REMARKABLE (number of animals) [1, 6] | HEART (HT) NOT REMARKABLE (number of animals) [1, 6] | LIVER (LI) NOT REMARKABLE (number of animals) [1, 6] | LUNG (LU) NOT REMARKABLE (number of animals) [1, 6] | PARATHYROID (PT) NOT REMARKABLE (number of animals) [1, 6] | SPLEEN (SP) NOT REMARKABLE (number of animals) [1, 6] | TRACHEA (TR) NOT REMARKABLE (number of animals) [1, 6] | ESOPHAGUS (ES) NOT REMARKABLE (number of animals) [1, 8] | HEART (HT) NOT REMARKABLE (number of animals) [1, 8] | LIVER (LI) NOT REMARKABLE (number of animals) [1, 8] | LUNG (LU) NOT REMARKABLE (number of animals) [1, 8] | PARATHYROID (PT) NOT REMARKABLE (number of animals) [1, 8] | SPLEEN (SP) NOT REMARKABLE (number of animals) [1, 8] | TRACHEA (TR) NOT REMARKABLE (number of animals) [1, 8] | ESOPHAGUS (ES) NOT REMARKABLE (number of animals) [1, 10] | HEART (HT) NOT REMARKABLE (number of animals) [1, 10] | LIVER (LI) NOT REMARKABLE (number of animals) [1, 10] | LUNG (LU) NOT REMARKABLE (number of animals) [1, 10] | PARATHYROID (PT) NOT REMARKABLE (number of animals) [1, 10] | SPLEEN (SP) NOT REMARKABLE (number of animals) [1, 10] | TRACHEA (TR) NOT REMARKABLE (number of animals) [1, 10] | ESOPHAGUS (ES) NOT REMARKABLE (number of animals) [1, 11] | HEART (HT) NOT REMARKABLE (number of animals) [1, 11] | LIVER (LI) NOT REMARKABLE (number of animals) [1, 11] | LUNG (LU) NOT REMARKABLE (number of animals) [1, 11] | PARATHYROID (PT) NOT REMARKABLE (number of animals) [1, 11] | SPLEEN (SP) NOT REMARKABLE (number of animals) [1, 11] | TRACHEA (TR) NOT REMARKABLE (number of animals) [1, 11] | ESOPHAGUS (ES) NOT REMARKABLE (number of animals) [1, 12] | HEART (HT) NOT REMARKABLE (number of animals) [1, 12] | LIVER (LI) NOT REMARKABLE (number of animals) [1, 12] | LUNG (LU) NOT REMARKABLE (number of animals) [1, 12] | PARATHYROID (PT) NOT REMARKABLE (number of animals) [1, 12] | SPLEEN (SP) NOT REMARKABLE (number of animals) [1, 12] | TRACHEA (TR) NOT REMARKABLE (number of animals) [1, 12] | ESOPHAGUS (ES) NOT REMARKABLE (number of animals) [1, 14] | HEART (HT) NOT REMARKABLE (number of animals) [1, 14] | LIVER (LI) NOT REMARKABLE (number of animals) [1, 14] | LUNG (LU) NOT REMARKABLE (number of animals) [1, 14] | PARATHYROID (PT) NOT REMARKABLE (number of animals) [1, 14] | SPLEEN (SP) NOT REMARKABLE (number of animals) [1, 14] | TRACHEA (TR) NOT REMARKABLE (number of animals) [1, 14] | ESOPHAGUS (ES) NOT REMARKABLE (number of animals) [1, 16] | HEART (HT) NOT REMARKABLE (number of animals) [1, 16] | LUNG (LU) NOT REMARKABLE (number of animals) [1, 16] | PARATHYROID (PT) NOT REMARKABLE (number of animals) [1, 16] | SPLEEN (SP) NOT REMARKABLE (number of animals) [1, 16] | TRACHEA (TR) NOT REMARKABLE (number of animals) [1, 16]
relatively low: liability for serious drug-drug interactions and liver toxicity (battery of liver enzyme studies) [2]
351.5 g: TERMINAL BODY WT, mean [1, 13]
3.244%: LIVER ORGAN-TO-BODY WT, mean [1, 6]
214.1 g: TERMINAL BODY WT, mean [1, 5]
76.9: multiple of anti-convulsant dose causing no adverse histologic effects ([1]; rats, 30 days chronic dosing)
3.278%: LIVER ORGAN-TO-BODY WT, mean [1, 12]
3.351%: LIVER ORGAN-TO-BODY WT, mean [1, 13]
358.8 g: TERMINAL BODY WT, mean [1, 15]
0: HEART (HT) ENLARGED (number of animals affected) [1, 5] | LIVER (LI) ENLARGED (number of animals affected) [1, 5] | HEART (HT) ENLARGED (number of animals affected) [1, 6] | LIVER (LI) ENLARGED (number of animals affected) [1, 6] | HEART (HT) ENLARGED (number of animals affected) [1, 8] | LIVER (LI) ENLARGED (number of animals affected) [1, 8] | HEART (HT) ENLARGED (number of animals affected) [1, 10] | LIVER (LI) ENLARGED (number of animals affected) [1, 10] | HEART (HT) ENLARGED (number of animals affected) [1, 11] | LIVER (LI) ENLARGED (number of animals affected) [1, 11] | HEART (HT) ENLARGED (number of animals affected) [1, 12] | LIVER (LI) ENLARGED (number of animals affected) [1, 12] | HEART (HT) ENLARGED (number of animals affected) [1, 14] | LIVER (LI) ENLARGED (number of animals affected) [1, 14] | HEART (HT) ENLARGED (number of animals affected) [1, 16]
3.832* %: LIVER ORGAN-TO-BODY WT, mean [1, 9]
3.248%: LIVER ORGAN-TO-BODY WT, mean [1, 11]

CC(=O)NC(C)C(=O)NCc1ccccc1 (racemic) [compound 1, N-Acetyl-D,L-alanine-N′-benzylamide]
unaltered: liver microsomal enzyme activity [4]
105.0 ± 4.1 nmol/mg/min: NADPH cytochrome c reductase activity ([4]; Sprague Dawley, 7 days)
2.30: pIC50 [3]
0.62 ± 0.07 nmol/mg/min: p-nitroanisole O-demethylase activity ([4]; Sprague Dawley, 7 days)
